# Laboratory results reported in paper PMC10053003, “Study on Pharmacokinetics and Metabolic Profiles of Novel Potential PLK-1 Inhibitors by UHPLC-MS/MS Combined with UHPLC-Q-Orbitrap/HRMS” (Molecules, 2023).
# Where two headings read alike, the source gives them in different places.
# Experiments:
# [1] = assay type: in vitro ADME, human; conditions: for HLM (%) relative abundance (area ratio): incubation of 7a in human liver microsomes with NADPH
# [2] = Pharmacokinetic study in rats after oral administration; assay type: in vivo, Sprague-Dawley rats; conditions: for Cmax / Tmax / half-life / bioavailability / AUC(0-t): Sprague-Dawley, rat, plasma; for AUC(0-t): read-out: AUC0–24h
# Method: Sprague-Dawley rats (8 weeks old, 180–220 g) were provided by Pengyue Laboratory Animal Technology Co., Ltd (Jinan, Shandong, China). All rats were fed adaptively for 1 week (20 °C–24 °C, 50%–70% relative humidity, 12/12 h light/dark cycle). A standard diet and boiled water were provided. The rats fasted for over 12h with free access to water before the study. Furthermore, 7a was dissolved DMSO (5%) and then diluted with saline. The rats were given 7a by gavage at 5 mg/kg and 30 mg/kg. In addition, 200 μL of blood was collected into a 1.5 mL tube added with heparin at 5 min, 15 min, 30 min, 1 h, 2 h, 4 h, 6 h, 8 h, 10 h, and 24 h after administration. Plasma was acquired by centrifugation (8000 rpm, 5 min) and all samples were immediately stored at −20 °C immediately. The guidelines of the Animal Ethics Committee of Luye Pharma Group Ltd. were strictly enforced during the animal experiments to ensure animal welfare.
# (§1) The main pharmacokinetic parameters were calculated using Phoenix WinNonlin 7.0 via a non-compartmental model (Pharsight, Mountain View, CA). […] Data were presented as mean ± SD.
# [3] = Stability of 7a in rat plasma (QC samples, UHPLC-MS/MS); assay type: in vitro ADME
# Method: QC samples were stored under different conditions, such as room temperature for 4 h, frozen-thawed for 3 cycles, frozen at −20 °C for 7 days, or stored in an auto-sampler for 24 h. The sample concentrations were calculated by the following calibration curve. The RE (%) and RSD (%) should be less than ±15%.
# [4] = assay type: in vitro ADME; conditions: incubation of 7a in rat liver microsomes with NADPH
# Method: Liver microsomes were used to investigate the metabolism clearance of 7a. In addition, 5 µL of rat liver microsome (20 mg/mL), 2 µL of 7a or onvansertib (100 µM), and 173 µL of PBS buffer (0.1 M, pH 7.4) were added to 1.5 mL Eppendorf tubes. After pre-incubation for 10 min at 37 °C, the reaction was initiated by adding an NADPH-generating system (20 µL) into the microsomal suspension. A system without NADPH was set as a negative control. After incubations for 10 min, 30 min, or 60 min, 400 µL of ice acetonitrile was added to quench the reaction. The supernatants were injected into Q Exactive ™ combined quadrupole Orbitrap mass spectrometer (Thermo Scientific, Waltham, MA, USA) for metabolite profiling and identification. The concentration of the compound to be measured at 0 min was defined as 100%, and the concentration at other times was converted into a residual percentage.
# [5] = Pharmacokinetics in rats after intravenous administration; assay type: in vivo; conditions: Sprague-Dawley, rat, plasma, i.v. 1 mg/kg
# Method: The pharmacokinetic characteristics of 7a were then evaluated successfully with the validated UHPLC-MS/MS method. […] The AUC0–24h was about 517 and 3192 h × nmol/L at the doses of 5 and 30 mg/kg, respectively. The tmax was approximately 2 h, and t1/2 was 5 h. In the dose range of 5–30 mg/kg, the pharmacokinetics of 7a were almost linear. The mean plasma concentration-time curve of 7a after a single intravenous administration (1 mg/kg) and the major pharmacokinetic parameters can be found in Figure S14 and Table S1.
# as §1
# Figure S12. 19F NMR (400 MHz, DMSO) of compound 7a: δ -56.89 ppm.
# Figure S13. Mass spectrum of compound 7a (m/z 500.2).
# Figure S14. Mean concentration-time curves of compound 7a after intravenous administration in rats (1 mg/kg).
# Data were presented as mean ± SD, n=3.
# Table S1. Main pharmacokinetics parameters of compound 7a after intravenous administration (mean ± SD, n=3).
# T (h) C0 AUC0-t V (L/kg) Cl(L/h/kg) […]
# PLK1 kinase = target: T1, PLK1 kinase (Homo sapiens, UniProt P53350); assay: PLK1 kinase inhibition activity; assay type: biochemical
# T1 construct: purchased CarnaBio 05–157
# Method: The compounds were diluted at a 1:3 ratio on a 384-well plate with the highest concentration of 1 μM, and a total of 10 concentration points were tested. The mixture of PLK1 kinase and peptide substrate (5 μL) was added to each well. […] The results were tested by EnVision and analyzed using XLFIT5 software.
# HCT-116 cells = assay: Cell proliferation inhibition, HCT-116 (ATPlite); assay type: cell-based; conditions: Homo sapiens, 72 h incubation, read-out: HCT-116 IC50 (cell viability)
# Method: (§2) HCT-116 or NCI-H2030 cells were seeded in 96-well plates at a density of 720/well and cultured overnight in a 5% CO2 incubator at 37 ± 1 °C. The compounds were diluted and added at a ratio of 1:3. After incubation for 72 h, ATPlite 1step Luminescence was added and incubated in the dark for 3 min, then was vortexed at 500 rpm for 2 min, and the luminous intensity was detected by the microplate reader and the cell inhibition was calculated as follows:Inhibition (%) = 100 − (Lum compound − Lum medium)/(Lum control − Lum medium) × 100%
# NCI-H2030 cells = assay: Cell proliferation inhibition, NCI-H2030 (ATPlite); assay type: cell-based; conditions: Homo sapiens, 72 h incubation, read-out: NCI-H2030 IC50 (cell viability)
# Method: as §2
# [6] = both sexes, oral 5 mg/kg, mean of male and female rats
# [7] = both sexes, oral 30 mg/kg, mean of male and female rats
# [8] = both sexes, oral, rats, doses 5–30 mg/kg, overall statement
# [9] = autosampler 4 °C for 24 h, nominal 3 nM
# [10] = autosampler 4 °C for 24 h, nominal 300 nM
# [11] = autosampler 4 °C for 24 h, nominal 750 nM
# [12] = rat plasma, freeze −20 °C for 7 days, nominal 3 nM
# [13] = rat plasma, freeze −20 °C for 7 days, nominal 300 nM
# [14] = rat plasma, freeze −20 °C for 7 days, nominal 750 nM
# [15] = rat plasma, freeze-thaw for 3 cycles, nominal 3 nM
# [16] = rat plasma, freeze-thaw for 3 cycles, nominal 300 nM
# [17] = rat plasma, freeze-thaw for 3 cycles, nominal 750 nM
# [18] = rat plasma, room temperature for 4 h, nominal 3 nM
# [19] = rat plasma, room temperature for 4 h, nominal 300 nM
# [20] = rat plasma, room temperature for 4 h, nominal 750 nM
# T1 sequence (P53350 whole entry): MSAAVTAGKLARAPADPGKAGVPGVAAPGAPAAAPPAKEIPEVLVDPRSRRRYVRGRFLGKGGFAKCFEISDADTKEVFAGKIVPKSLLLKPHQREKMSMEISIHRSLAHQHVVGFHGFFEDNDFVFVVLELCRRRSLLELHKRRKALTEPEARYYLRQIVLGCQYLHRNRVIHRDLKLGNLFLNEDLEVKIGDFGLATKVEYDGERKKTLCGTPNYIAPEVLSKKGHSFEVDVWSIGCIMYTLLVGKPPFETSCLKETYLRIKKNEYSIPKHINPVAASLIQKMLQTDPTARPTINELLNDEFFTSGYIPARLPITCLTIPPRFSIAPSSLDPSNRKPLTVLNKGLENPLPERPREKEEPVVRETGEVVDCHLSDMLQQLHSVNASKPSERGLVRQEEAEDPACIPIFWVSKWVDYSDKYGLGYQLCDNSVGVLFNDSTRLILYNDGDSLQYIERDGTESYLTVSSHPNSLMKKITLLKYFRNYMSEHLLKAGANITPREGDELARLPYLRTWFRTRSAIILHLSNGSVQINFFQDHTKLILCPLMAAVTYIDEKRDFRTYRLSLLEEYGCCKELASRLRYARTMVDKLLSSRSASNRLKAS
smiles,measurement,setting,value
"CN1CCN(c2ccc(OC(F)(F)F)c(Nc3nccc(-c4cc5c(=O)[nH]ccc5n4C)n3)c2)CC1 [compound 7a, 1-methyl-2-(2-((5-(4-methylpiperazin-1-yl)-2-(trifluoromethoxy)phenyl)amino)pyrimidin-4-yl)-1,5-dihydro-4H-pyrrolo[3,2-c] pyridin-4-one]",stability of the parent in HLM,[1]; human liver microsomes,stable
same,HLM (%) relative abundance (area ratio),[1],43.73%
same,Cmax,"[2]; oral 5 mg/kg, female rats",102 ± 25 nM
same,Tmax,"[2]; oral 5 mg/kg, female rats",0.8 ± 1 h
same,half-life,"[2]; oral 5 mg/kg, female rats",276 ± 84 min
same,bioavailability,"[2]; oral 5 mg/kg, female rats, read-out: F",19.9%
same,Cmax,"[2]; oral 5 mg/kg, male rats",87 ± 45 nM
same,Tmax,"[2]; oral 5 mg/kg, male rats",3 ± 2.6 h
same,half-life,"[2]; oral 5 mg/kg, male rats",264 ± 54 min
same,bioavailability,"[2]; oral 5 mg/kg, male rats, read-out: F",23.9%
same,Cmax,"[2]; oral 30 mg/kg, female rats",428 ± 90 nM
same,Tmax,"[2]; oral 30 mg/kg, female rats",2.3 ± 1.5 h
same,half-life,"[2]; oral 30 mg/kg, female rats",366 ± 54 min
same,bioavailability,"[2]; oral 30 mg/kg, female rats, read-out: F",22.3%
same,Cmax,"[2]; oral 30 mg/kg, male rats",435 ± 81 nM
same,Tmax,"[2]; oral 30 mg/kg, male rats",2 ± 1.9 h
same,half-life,"[2]; oral 30 mg/kg, male rats",222 ± 78 min
same,bioavailability,"[2]; oral 30 mg/kg, male rats, read-out: F",22.7%
same,AUC(0-t),"[2]; both sexes, po, 5 mg/kg, oral 5 mg/kg, mean of male and female rats",~0.517 µM·h
same,AUC(0-t),"[2]; both sexes, po, 30 mg/kg, oral 30 mg/kg, mean of male and female rats",~3.19 µM·h
same,bioavailability,"[2]; both sexes, po, rats, overall statement, read-out: oral bioavailability (F)",~22%
same,Cmax,[2]; [6],95 ± 33 nM
same,Tmax,[2]; [6],1.9 ± 2.1 h
same,half-life,[2]; [6],270 ± 66 min
same,bioavailability,"[2]; both sexes, oral 5 mg/kg, mean of male and female rats, read-out: F",21.9%
same,Cmax,[2]; [7],432 ± 77 nM
same,Tmax,[2]; [7],2.2 ± 1.6 h
same,half-life,[2]; [7],306 ± 96 min
same,bioavailability,"[2]; both sexes, oral 30 mg/kg, mean of male and female rats, read-out: F",22.5%
same,Tmax,[2]; [8],~2 h
same,half-life,[2]; [8],300 min
same,AUC(0-t),"[2]; female, po, 5 mg/kg, oral 5 mg/kg, female rats",0.469 ± 0.064 µM·h
same,AUC(0-t),"[2]; female, po, 30 mg/kg, oral 30 mg/kg, female rats",3.16 ± 1.02 µM·h
same,AUC(0-t),"[2]; male, po, 5 mg/kg, oral 5 mg/kg, male rats",0.565 ± 0.132 µM·h
same,AUC(0-t),"[2]; male, po, 30 mg/kg, oral 30 mg/kg, male rats",3.22 ± 1.04 µM·h
same,AUC0–24h,"[2]; oral 30 mg/kg, mean of male and female rats, 30 mg/kg",3.192 ± 0.922 µM·h
same,Measured Concentrations,[3]; [9],3.05 ± 0.10 nM
same,RE (stability),[3]; [9],1.78%
same,Measured Concentrations,[3]; [10],280 ± 11.9 nM
same,RE (stability),[3]; [10],−6.67%
same,Measured Concentrations,[3]; [11],701 ± 46.5 nM
same,RE (stability),[3]; [11],−6.58%
same,Measured Concentrations,[3]; [12],2.55 ± 0.13 nM
same,RE (stability),[3]; [12],−14.9%
same,Measured Concentrations,[3]; [13],272 ± 9.67 nM
same,RE (stability),[3]; [13],−9.33%
same,Measured Concentrations,[3]; [14],685 ± 34.7 nM
same,RE (stability),[3]; [14],−8.71%
same,Measured Concentrations,[3]; [15],2.73 ± 0.21 nM
same,RE (stability),[3]; [15],−9.17%
same,Measured Concentrations,[3]; [16],260 ± 10.8 nM
same,RE (stability),[3]; [16],−13.4%
same,Measured Concentrations,[3]; [17],649 ± 24.2 nM
same,RE (stability),[3]; [17],−13.5%
same,Measured Concentrations,[3]; [18],2.59 ± 0.17 nM
same,RE (stability),[3]; [18],−13.7%
same,Measured Concentrations,[3]; [19],261 ± 4.94 nM
same,RE (stability),[3]; [19],−13%
same,Measured Concentrations,[3]; [20],649 ± 17.9 nM
same,RE (stability),[3]; [20],−13.4%
same,RLM (%) relative abundance (area ratio),[4],5.34%
same,AUC(0-t),[5],0.472 ± 0.032 µM·h
same,C0,[5],481 ± 42 nM
same,clearance,[5],70 mL/min/kg
same,half-life,[5],144 ± 36 min
same,Vd,[5]; read-out: Vss,8.5 ± 1.3 L/kg
same,IC50,PLK1 kinase,0.89 nM
same,"PLK-1 activity and cytotoxicity, times higher than compound 25",PLK1 kinase; relative to compound 25,more than 4 times
same,IC50,HCT-116 cells,30.6 nM
same,IC50,NCI-H2030 cells,38.5 nM
"CN1CCN(c2ccc(OC(F)(F)F)c(Nc3nccc(-c4cc5c(n4C)CCNC5=O)n3)c2)CC1 [compound 25, reference compound]",IC50,PLK1 kinase; read-out: PLK1 inhibition IC50,4.07 nM
same,IC50,HCT-116 cells,62.8 nM
same,IC50,NCI-H2030 cells,74.7 nM
Cn1c(-c2ccnc(Nc3cc(N4CCNCC4)ccc3OC(F)(F)F)n2)cc2c(=O)[nH]ccc21 [M2],HLM (%) relative abundance (area ratio),[1],34.76%
same,RLM (%) relative abundance (area ratio),[4],6.53%
